In ChEMBL document CHEMBL4130478, “Improved proteolytic stability and potent activity against Leishmania infantum trypanothione reductase of α/β-peptide foldamers conjugated to cell-penetrating peptides” (Eur J Med Chem, 2017):
The source made the active and inactive calls. The calls are words filed in the database; no cut-off is given here. Numbered stars: 1 amine (or outer) side, 2 acyl side, 3 side chain; on linkers, the order of the positions; unused ones are H or OH. Square brackets hold non-standard residues; d marks the D form. Peptide text beside a SMILES is read from it. X1 = O=C(CC[C@@H]1CCCN1[*:1])[*:2]; β3hQ = NC(=O)CC[C@H](N)CC(=O)O; β3hK = NCCCC[C@H](N)CC(=O)O; β3hS = N[C@@H](CO)CC(=O)O; Nle = CCCC[C@H](N)C(=O)O; β3hA = C[C@H](N)CC(=O)O

Experiments:
[1] = test system: Leishmania infantum; test: Leishmanicidal activity against Leishmania infantum amastigotes at 25 uM after 24 hrs by propidium iodide staining based flow cytometry; type: functional, organism-based
[2] = target: Proteinase K (Engyodontium album, UniProt P06873); test: Stability assessed as Tritirachium album proteinase K-mediated compound degradation by measuring half life at 50 uM by HPLC method; type: ADME; conditions: parengyodontium album
[3] = target: T1, Trypanothione reductase (Leishmania infantum, UniProt A4HSF7); test: Inhibition of oxidoreductase activity of recombinant Leishmania infantum trypanothione reductase pre-incubated for 10 mins before T[S]2 and NADPH addition
[4] = target: T1, Trypanothione reductase; test: Inhibition of dimerization of HIS/FLAG tagged Leishmania infantum trypanothione reductase incubated for 16 hrs in presence of dimerization buffer by ELISA
[5] = test system: Leishmania infantum; test: Leishmanicidal activity against Leishmania infantum MCAN/ES/89/IPZ229/1/89 promastigotes at 25 uM after 24 hrs by propidium iodide staining based flow cytometry; type: functional, organism-based

Sequence of Proteinase K (P06873 whole entry): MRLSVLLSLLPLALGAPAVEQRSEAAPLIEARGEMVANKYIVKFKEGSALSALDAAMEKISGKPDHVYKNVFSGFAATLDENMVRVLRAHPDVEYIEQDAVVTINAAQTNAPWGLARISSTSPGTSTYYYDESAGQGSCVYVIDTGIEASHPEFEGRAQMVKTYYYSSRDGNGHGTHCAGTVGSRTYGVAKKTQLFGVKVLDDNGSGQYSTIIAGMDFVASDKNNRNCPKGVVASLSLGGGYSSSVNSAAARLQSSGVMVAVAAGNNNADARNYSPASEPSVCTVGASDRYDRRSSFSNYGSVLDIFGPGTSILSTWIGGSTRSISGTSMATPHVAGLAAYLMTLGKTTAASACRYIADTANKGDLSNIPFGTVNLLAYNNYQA
T1 sequence (A4HSF7 whole entry): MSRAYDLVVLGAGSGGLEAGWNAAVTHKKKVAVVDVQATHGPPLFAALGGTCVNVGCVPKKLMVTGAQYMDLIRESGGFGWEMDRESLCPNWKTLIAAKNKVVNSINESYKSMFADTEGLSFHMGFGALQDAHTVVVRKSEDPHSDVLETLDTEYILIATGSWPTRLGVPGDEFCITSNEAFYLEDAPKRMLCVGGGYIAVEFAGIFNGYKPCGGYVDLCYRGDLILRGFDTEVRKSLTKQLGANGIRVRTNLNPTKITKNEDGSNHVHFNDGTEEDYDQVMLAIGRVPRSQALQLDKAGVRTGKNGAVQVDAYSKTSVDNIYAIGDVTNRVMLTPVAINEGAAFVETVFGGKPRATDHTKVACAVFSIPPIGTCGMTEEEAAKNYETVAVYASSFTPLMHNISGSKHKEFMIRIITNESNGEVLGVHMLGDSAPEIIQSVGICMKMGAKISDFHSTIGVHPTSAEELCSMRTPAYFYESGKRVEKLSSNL

SMILES | Activity [1] | half-life at 50 µM [2] [min] | IC50 [3] [µM] | IC50 [4] [µM] | Activity [5]
CCCC[C@@H](CC(N)=O)NC(=O)[C@H](CCCCN)NC(=O)[C@H](CCCC)NC(=O)C[C@H](CO)NC(=O)C[C@H](NC(=O)CNC(=O)[C@@H](NC(=O)C[C@H](CO)NC(=O)[C@H](CCC(N)=O)NC(=O)[C@@H](NC(=O)[C@@H](NC(=O)C[C@H](CCCCN)NC(=O)C[C@@H]1CCCN1C(C)=O)[C@@H](C)CC)[C@@H](C)CC)C(C)C)[C@@H](C)CC | inactive | 131 | 2.08 | 18 | inactive
CCCC[C@@H](CC(=O)N[C@@H](CCCCN)C(=O)N[C@@H](CCCC)C(N)=O)NC(=O)[C@H](CO)NC(=O)[C@@H](NC(=O)CNC(=O)C[C@H](NC(=O)[C@H](CO)NC(=O)[C@H](CCC(N)=O)NC(=O)C[C@H](NC(=O)[C@@H](NC(=O)[C@H](CCCCN)NC(=O)[C@@H]1CCCN1C(C)=O)[C@@H](C)CC)[C@@H](C)CC)C(C)C)[C@@H](C)CC |  | 215 | 3.11 | 10.3 | 
CCCC[C@@H](CC(=O)N[C@@H](CCCCN)C(=O)N[C@@H](CCCC)C(N)=O)NC(=O)[C@@H](CO)NC(=O)[C@@H](NC(=O)C[C@H](C)NC(=O)[C@@H](NC(=O)[C@@H](CO)NC(=O)[C@H](CCC(N)=O)NC(=O)C[C@H](NC(=O)[C@@H](NC(=O)[C@H](CCCCN)NC(=O)C[C@@H]1CCCN1C(C)=O)[C@@H](C)CC)[C@@H](C)CC)C(C)C)[C@@H](C)CC | inactive |  |  |  | inactive
CC[C@H](C)[C@H](CC(=O)N[C@@H](CCC(N)=O)C(=O)N[C@@H](CO)C(=O)N[C@@H](CC(=O)NCC(=O)N[C@H](C(N)=O)[C@@H](C)CC)C(C)C)NC(=O)[C@@H](NC(=O)[C@H](CCCCN)NC(=O)[C@@H]1CCCN1C(C)=O)[C@@H](C)CC | inactive |  | > 75 | 41.8 | inactive
CCCC[C@H](NC(=O)[C@H](CO)NC(=O)[C@@H](NC(=O)CNC(=O)[C@@H](NC(=O)[C@H](CO)NC(=O)[C@H](CCC(N)=O)NC(=O)[C@@H](NC(=O)[C@@H](NC(=O)[C@H](CCCCN)NC(=O)[C@@H]1CCCN1C(C)=O)[C@@H](C)CC)[C@@H](C)CC)C(C)C)[C@@H](C)CC)C(N)=O |  |  | 0.82 | 4.21 | 
CCCC[C@H](NC(=O)C[C@H](CCCCN)NC(=O)[C@H](CCCC)NC(=O)[C@H](CO)NC(=O)[C@@H](NC(=O)C[C@H](C)NC(=O)[C@@H](NC(=O)[C@H](CO)NC(=O)[C@H](CCC(N)=O)NC(=O)C[C@@H](NC(=O)[C@@H](NC(=O)[C@H](CCCCN)NC(=O)[C@@H]1CCCN1C(C)=O)[C@@H](C)CC)[C@@H](C)CC)C(C)C)[C@@H](C)CC)C(N)=O | inactive |  | 5.38 | 13.8 | inactive
CC[C@H](C)[C@H](NC(=O)CNC(=O)[C@@H](NC(=O)[C@@H](CO)NC(=O)[C@H](CCC(N)=O)NC(=O)[C@@H](NC(=O)[C@@H](NC(=O)[C@H](CCCCN)NC(=O)[C@@H]1CCCN1C(C)=O)[C@@H](C)CC)[C@@H](C)CC)C(C)C)C(N)=O | inactive |  |  |  | inactive
CC[C@H](C)[C@H](NC(=O)CNC(=O)[C@@H](NC(=O)[C@H](CO)NC(=O)[C@H](CCC(N)=O)NC(=O)[C@@H](NC(=O)[C@@H](NC(=O)[C@H](CCCCN)NC(=O)[C@@H]1CCCN1C(C)=O)[C@@H](C)CC)[C@@H](C)CC)C(C)C)C(N)=O |  |  | 3.59 | 15.7 | 
CCCC[C@@H](CC(N)=O)NC(=O)[C@H](CCCCN)NC(=O)[C@H](CCCC)NC(=O)C[C@H](CO)NC(=O)[C@@H](NC(=O)CNC(=O)[C@@H](NC(=O)C[C@H](CO)NC(=O)[C@H](CCC(N)=O)NC(=O)[C@@H](NC(=O)C[C@H](NC(=O)[C@H](CCCCN)NC(=O)C[C@@H]1CCCN1C(C)=O)[C@@H](C)CC)[C@@H](C)CC)C(C)C)[C@@H](C)CC | inactive | 517 | 3.47 | 21.7 | inactive
CCCC[C@@H](CC(=O)N[C@@H](CCCCN)C(=O)N[C@@H](CCCC)C(N)=O)NC(=O)[C@@H](CO)NC(=O)[C@@H](NC(=O)CNC(=O)C[C@H](NC(=O)[C@H](CO)NC(=O)[C@H](CCC(N)=O)NC(=O)C[C@H](NC(=O)[C@@H](NC(=O)[C@H](CCCCN)NC(=O)[C@@H]1CCCN1C(C)=O)[C@@H](C)CC)[C@@H](C)CC)C(C)C)[C@@H](C)CC | inactive |  |  |  | inactive
CC[C@H](C)[C@H](CC(=O)N[C@H](C(=O)N[C@@H](CCC(N)=O)C(=O)N[C@@H](CO)C(=O)N[C@@H](CC(=O)NCC(=O)N[C@H](C(N)=O)[C@@H](C)CC)C(C)C)[C@@H](C)CC)NC(=O)[C@H](CCCCN)NC(=O)[C@@H]1CCCN1C(C)=O | inactive |  | > 75 | 53 | inactive
CC[C@H](C)[C@H](NC(=O)C[C@H](C)NC(=O)[C@@H](NC(=O)[C@H](CO)NC(=O)[C@H](CCC(N)=O)NC(=O)C[C@@H](NC(=O)[C@@H](NC(=O)[C@H](CCCCN)NC(=O)C[C@@H]1CCCN1C(C)=O)[C@@H](C)CC)[C@@H](C)CC)C(C)C)C(=O)O | inactive |  | 39.8 | 50.4 | inactive
CCCC[C@@H](CC(=O)N[C@@H](CCCCN)C(=O)N[C@@H](CCCC)C(N)=O)NC(=O)[C@H](CO)NC(=O)[C@@H](NC(=O)C[C@H](C)NC(=O)[C@@H](NC(=O)[C@H](CO)NC(=O)[C@H](CCC(N)=O)NC(=O)C[C@H](NC(=O)[C@@H](NC(=O)[C@H](CCCCN)NC(=O)C[C@@H]1CCCN1C(C)=O)[C@@H](C)CC)[C@@H](C)CC)C(C)C)[C@@H](C)CC |  | 23 | 2.69 | 13.9 | 
CCCC[C@H](NC(=O)C[C@H](CCCCN)NC(=O)[C@H](CCCC)NC(=O)C[C@H](CO)NC(=O)[C@@H](NC(=O)C[C@H](C)NC(=O)[C@@H](NC(=O)C[C@H](CO)NC(=O)C[C@H](CCC(N)=O)NC(=O)[C@@H](NC(=O)[C@@H](NC(=O)[C@H](CCCCN)NC(=O)CC[C@@H]1CCCN1C(C)=O)[C@@H](C)CC)[C@@H](C)CC)C(C)C)[C@@H](C)CC)C(N)=O (Ac-[X1]KII[β3hQ][β3hS]V[β3hA]I[β3hS][Nle][β3hK][Nle]-NH2) | inactive | < 15 | 1.65 | 12.8 | inactive
CCCC[C@H](NC(=O)[C@H](CCCCN)NC(=O)[C@H](CCCC)NC(=O)[C@H](CO)NC(=O)[C@@H](NC(=O)CNC(=O)[C@@H](NC(=O)[C@H](CO)NC(=O)[C@H](CCC(N)=O)NC(=O)[C@@H](NC(=O)[C@@H](NC(=O)[C@H](CCCCN)NC(=O)[C@@H]1CCCN1C(C)=O)[C@@H](C)CC)[C@@H](C)CC)C(C)C)[C@@H](C)CC)C(N)=O |  | 23 | 1.2 | 10.3 | 
CCCC[C@H](NC(=O)[C@@H](CO)NC(=O)[C@@H](NC(=O)CNC(=O)[C@@H](NC(=O)[C@@H](CO)NC(=O)[C@H](CCC(N)=O)NC(=O)[C@@H](NC(=O)[C@@H](NC(=O)[C@H](CCCCN)NC(=O)[C@@H]1CCCN1C(C)=O)[C@@H](C)CC)[C@@H](C)CC)C(C)C)[C@@H](C)CC)C(N)=O | inactive |  |  |  | inactive
CC[C@H](C)[C@H](NC(=O)CNC(=O)[C@@H](NC(=O)C[C@H](CO)NC(=O)[C@H](CCC(N)=O)NC(=O)[C@@H](NC(=O)C[C@@H](NC(=O)[C@H](CCCCN)NC(=O)[C@@H]1CCCN1C(C)=O)[C@@H](C)CC)[C@@H](C)CC)C(C)C)C(N)=O | inactive | 238 | > 75 | 22.3 | inactive
CCCC[C@H](NC(=O)[C@H](CCCCN)NC(=O)[C@H](CCCC)NC(=O)[C@@H](CO)NC(=O)[C@@H](NC(=O)CNC(=O)[C@@H](NC(=O)[C@@H](CO)NC(=O)[C@H](CCC(N)=O)NC(=O)[C@@H](NC(=O)[C@@H](NC(=O)[C@H](CCCCN)NC(=O)[C@@H]1CCCN1C(C)=O)[C@@H](C)CC)[C@@H](C)CC)C(C)C)[C@@H](C)CC)C(N)=O | inactive |  |  |  | inactive
CCCC[C@H](NC(=O)[C@H](CO)NC(=O)[C@@H](NC(=O)C[C@H](C)NC(=O)[C@@H](NC(=O)[C@H](CO)NC(=O)[C@H](CCC(N)=O)NC(=O)C[C@@H](NC(=O)[C@@H](NC(=O)[C@H](CCCCN)NC(=O)[C@@H]1CCCN1C(C)=O)[C@@H](C)CC)[C@@H](C)CC)C(C)C)[C@@H](C)CC)C(N)=O | inactive |  | 28.5 | 47.3 | inactive
CCCC[C@@H](CC(=O)N[C@@H](CCCCN)C(=O)N[C@@H](CC(N)=O)C(N)=O)NC(=O)[C@H](CO)NC(=O)[C@@H](NC(=O)CNC(=O)C[C@@H](NC(=O)[C@H](CO)NC(=O)[C@H](CCC(N)=O)NC(=O)C(NC(=O)C[C@@H](NC(=O)[C@H](CCCCN)NC(=O)[C@@H]1CCCN1C(C)=O)[C@@H](C)CC)[C@@H](C)CC)C(C)C)[C@@H](C)CC (single isomer, unassigned) | inactive | < 15 | 18.2 | 9.72 | inactive
CCCC[C@H](NC(=O)[C@H](CCCCN)NC(=O)[C@H](CCCC)NC(=O)[C@H](CO)NC(=O)[C@@H](NC(=O)CNC(=O)C[C@H](NC(=O)[C@H](CO)NC(=O)[C@H](CCC(N)=O)NC(=O)[C@@H](NC(=O)C[C@H](NC(=O)[C@H](CCCCN)NC(=O)[C@@H]1CCCN1C(C)=O)[C@@H](C)CC)[C@@H](C)CC)C(C)C)[C@@H](C)CC)C(N)=O | inactive |  | 8.78 | 13.7 | inactive
